Key:
advanced cancer = settings: cited from earlier work
[1] = test system: phosphorylated STAT3 (pSTAT3); experiment: pSTAT3 IHC staining of tumor samples; type: in vivo, Japanese patients; settings: one colorectal cancer patient
Description: Assessments of antitumor activity were objective tumor response, median progression-free survival (PFS) and median overall survival (OS). Tumor response was evaluated according to RECIST 1.1 [21]. Median PFS was defined as the time from the day of the first dose of napabucasin to the date of progressive disease (PD), if neither was observed, the patient was to be censored at the last assessment of tumor response. Median OS was defined as the time from the first dose of napabucasin to the date of death from any cause. Patients who were still alive at the final observation were to be censored at the date they were last known to be alive. STAT3 single nucleotide polymorphism (SNP) genotyping was carried out using DNA extracted from whole blood samples to assess tumor response, median PFS, and median OS. Immunohistochemistry (IHC), mutation analysis (Oncomine Comprehensive Assay), and microsatellite instability analyses were performed in tumor tissue samples obtained from patients who provided additional consent to assess the relationship between specific biomarkers and the antitumor activity of napabucasin. IHC staining of phosphorylated STAT3 (pSTAT3) was carried out on archived tumor samples which were collected pre-treatment, and de novo lesions during and post-treatment were also collected, according to the protocol of a recent Phase 3 study. Positive pSTAT3 staining was defined as cancer cell nuclear staining ≥ 5% plus a stroma staining score of at least 2. The biomarker testing facility was responsible for IHC staining and storage of tumor samples. If consent to a genetic test was withdrawn, samples and associated analyses were discarded.

[2] = Phase 1 dose-escalation study: safety (DLT, MTD, adverse events); type: in vivo
Description: This Phase 1, open-label, dose-escalation study (3 + 3 design) was carried out at the National Cancer Center Hospital East in Japan. Patients received napabucasin 240 mg twice daily (BID) (Cohort 1), 480 mg BID (Cohort 2), or 720 mg BID (Cohort 3). Day 1 was defined as the day the first dose of napabucasin was administered. All patients were hospitalized until PK assessments were completed (Day 30), though patients were permitted to go/stay out during this period at the discretion of the investigators. […] Dose escalation would continue if no DLTs were observed, and if one of the first three patients experienced a DLT within the first cycle an additional three patients would be enrolled. Dose escalation would be halted if ≥ 2 of the first three patients (or ≥ 2 of the six patients, if additional patients were enrolled) experienced a DLT. If ≤ 1 of the patients in Cohort 3 (highest dose) experienced an observable DLT, then three additional patients were enrolled and would receive the highest dose level of napabucasin, and DLTs would be evaluated in the additional patients. Study treatment was given in 28-day cycles until disease progression or intolerable toxicity due to AEs.
Safety endpoints included AEs, drug-related AEs, vital signs, body weight, laboratory values, and 12-lead ECG. All details of AEs were recorded, including the severity of the event. The severity of AEs was classified according to CTCAE v4.0-JCOG. Napabucasin dose could be reduced or interrupted due to AEs if considered necessary by the investigators, and later reinstated if the AE recovered to Grade 2 or lower. It could also be permanently discontinued in patients who met the discontinuation criteria, which included AEs that rendered trial continuation difficult, aggravation of underlying disease, and withdrawal of consent. Body weight was measured at baseline and Day 29 of Cycle 2, and every 28 days in subsequent cycles. Vital signs were measured at baseline, Days 1, 2, 8, 15, and 22 of Cycle 1, Days 29, 36, 43, and 50 of Cycle 2, and every 28 days in subsequent cycles. 12-lead ECG was measured at baseline and Day 57 in Cycle 3, and every 28 days in subsequent cycles. Laboratory values were recorded at baseline, Days 8, 15, and 22 in Cycle 1, Days 29, 36, 43, and 50 in Cycle 2, and every 28 days in subsequent cycles.
The safety and antitumor activity (intention-to-treat [ITT]) analysis populations included all patients that received at least one dose of napabucasin. The DLT analysis population included all patients that received at least one dose of napabucasin with at least 80% compliance ([number of capsules actually ingested/number of capsules that should have been ingested per dose […]] × 100) during the DLT evaluation period, and those patients who experienced DLT during the evaluation period regardless of compliance. The PK population included all patients that received at least one dose of napabucasin and had plasma napabucasin concentration data for at least one-time point after the first dose of napabucasin.

[3] = Post-napabucasin: Day 26 from the first dose, treatment ongoing
[4] = all grades, all cohorts, 14 patients

CC(=O)c1cc2c(o1)C(=O)c1ccccc1C2=O [napabucasin]
Dose up to which napabucasin was well tolerated (advanced cancer; 14 cohorts, N = 41): up to 2000 mg/day
Patients with SD as the best response (advanced cancer; Phase 1 dose-escalation study): 65%
pSTAT3 status ([1]; post-napabucasin (during treatment), positive = nuclear staining ≥ 5% plus stroma score at least 2): positive
% Nuclear tumor positive (pSTAT3 IHC) [1, 3]: 10%
H-score (pSTAT3 IHC) [1, 3]: 15
Microenvironment % positive (pSTAT3 IHC) [1, 3]: 50%
Microenvironment intensity (pSTAT3 IHC) [1, 3]: 2
Percent nuclear tumor staining 0 (pSTAT3 IHC) [1, 3]: 90%
Percent nuclear tumor staining 1 + (pSTAT3 IHC) [1, 3]: 5%
Percent nuclear tumor staining 2 + (pSTAT3 IHC) [1, 3]: 5%
Percent nuclear tumor staining 3 + (pSTAT3 IHC) [1, 3]: 0%
MTD (maximum tolerated dose) ([2]; 28-day cycles, BID dosing): 1440 mg/day
Any drug-related adverse event, Grade 1 ([2]; Cohort 1, 480 mg/day, n = 3): 1 (33.3) Number of patients (%)
Drug-related abdominal pain lower (Grade 1) ([2]; Cohort 1, 480 mg/day, n = 3): 0 (0.0) Number of patients (%)
Drug-related anorexia, Grade 1 ([2]; Cohort 1, 480 mg/day, n = 3): 1 (33.3) Number of patients (%)
Drug-related anorexia, Grade 2 ([2]; Cohort 1, 480 mg/day, n = 3): 0 (0.0) Number of patients (%)
Drug-related anorexia, Grade 3 ([2]; Cohort 1, 480 mg/day, n = 3): 0 (0.0) Number of patients (%)
Drug-related diarrhea, Grade 1 ([2]; Cohort 1, 480 mg/day, n = 3): 1 (33.3) Number of patients (%)
Drug-related nausea (Grade 1) ([2]; Cohort 1, 480 mg/day, n = 3): 0 (0.0) Number of patients (%)
Drug-related rash (Grade 1) ([2]; Cohort 1, 480 mg/day, n = 3): 0 (0.0) Number of patients (%)
Drug-related urinary tract infection (Grade 1) ([2]; Cohort 1, 480 mg/day, n = 3): 0 (0.0) Number of patients (%)
Any drug-related adverse event, Grade 1 ([2]; Cohort 2, 960 mg/day, n = 4): 4 (100) Number of patients (%)
Drug-related abdominal pain lower (Grade 1) ([2]; Cohort 2, 960 mg/day, n = 4): 1 (25.0) Number of patients (%)
Drug-related anorexia, Grade 1 ([2]; Cohort 2, 960 mg/day, n = 4): 0 (0.0) Number of patients (%)
Drug-related anorexia, Grade 2 ([2]; Cohort 2, 960 mg/day, n = 4): 0 (0.0) Number of patients (%)
Drug-related anorexia, Grade 3 ([2]; Cohort 2, 960 mg/day, n = 4): 0 (0.0) Number of patients (%)
Drug-related diarrhea, Grade 1 ([2]; Cohort 2, 960 mg/day, n = 4): 3 (75.0) Number of patients (%)
Drug-related nausea (Grade 1) ([2]; Cohort 2, 960 mg/day, n = 4): 0 (0.0) Number of patients (%)
Drug-related rash (Grade 1) ([2]; Cohort 2, 960 mg/day, n = 4): 1 (25.0) Number of patients (%)
Drug-related urinary tract infection (Grade 1) ([2]; Cohort 2, 960 mg/day, n = 4): 1 (25.0) Number of patients (%)
Any drug-related adverse event, Grade 1 ([2]; Cohort 3, 1440 mg/day, n = 7): 4 (57.1) Number of patients (%)
Any drug-related adverse event, Grade 2 ([2]; Cohort 3, 1440 mg/day, n = 7): 1 (14.3) Number of patients (%)
Any drug-related adverse event, Grade 3 ([2]; Cohort 3, 1440 mg/day, n = 7): 1 (14.3) Number of patients (%)
Drug-related abdominal pain lower (Grade 1) ([2]; Cohort 3, 1440 mg/day, n = 7): 0 (0.0) Number of patients (%)
Drug-related anorexia, Grade 1 ([2]; Cohort 3, 1440 mg/day, n = 7): 0 (0.0) Number of patients (%)
Drug-related anorexia, Grade 2 ([2]; Cohort 3, 1440 mg/day, n = 7): 1 (14.3) Number of patients (%)
Drug-related anorexia, Grade 3 ([2]; Cohort 3, 1440 mg/day, n = 7): 1 (14.3) Number of patients (%)
Drug-related diarrhea, Grade 1 ([2]; Cohort 3, 1440 mg/day, n = 7): 4 (57.1) Number of patients (%)
Drug-related diarrhea, Grade 3 ([2]; Cohort 3, 1440 mg/day, n = 7): 1 (14.3) Number of patients (%)
Drug-related nausea (Grade 1) ([2]; Cohort 3, 1440 mg/day, n = 7): 4 (57.1) Number of patients (%)
Drug-related rash (Grade 1) ([2]; Cohort 3, 1440 mg/day, n = 7): 0 (0.0) Number of patients (%)
Drug-related urinary tract infection (Grade 1) ([2]; Cohort 3, 1440 mg/day, n = 7): 0 (0.0) Number of patients (%)
Initial onset of nausea, most frequently observed ([2]; after the first dose): 1 to 14 days
Drug-related nausea, number of patients ([2]; all cohorts, 14 patients): 4 n
Drug-related vomiting, number of patients ([2]; all cohorts, 14 patients): 3 n
Drug-related anorexia, number of patients [2, 4]: 3 n
Drug-related diarrhea, number of patients [2, 4]: 9 n
Any drug-related adverse event, Grade 1 ([2]; human, in vivo): 9 (64.3) Number of patients (%)
Any drug-related adverse event, Grade 2 ([2]; human, in vivo): 1 (7.1) Number of patients (%)
Any drug-related adverse event, Grade 3 ([2]; human, in vivo): 1 (7.1) Number of patients (%)
Drug-related abdominal pain lower (Grade 1) ([2]; human, in vivo): 1 (7.1) Number of patients (%)
Drug-related anorexia, Grade 1 ([2]; human, in vivo): 1 (7.1) Number of patients (%)
Drug-related anorexia, Grade 2 ([2]; human, in vivo): 1 (7.1) Number of patients (%)
Drug-related anorexia, Grade 3 ([2]; human, in vivo): 1 (7.1) Number of patients (%)
Drug-related diarrhea, Grade 1 ([2]; human, in vivo): 8 (57.1) Number of patients (%)
Drug-related diarrhea, Grade 3 ([2]; human, in vivo): 1 (7.1) Number of patients (%)
Drug-related nausea (Grade 1) ([2]; human, in vivo): 4 (28.6) Number of patients (%)
Drug-related rash (Grade 1) ([2]; human, in vivo): 1 (7.1) Number of patients (%)
Drug-related urinary tract infection (Grade 1) ([2]; human, in vivo): 1 (7.1) Number of patients (%)
Drug-related vomiting (Grade 1) ([2]; human, in vivo): 3 (21.4) Number of patients (%)
Initial onset of diarrhea and vomiting, most frequently observed ([2]; human, in vivo): 1 to 7 days
Patients who experienced drug-related AEs ([2]; human, in vivo): 11 patients
Patients with AEs reported ([2]; human, in vivo): 14 patients
Dose reductions due to AEs ([2]; in vivo): no dose reductions due to AEs
Patients with dose interruptions due to AEs ([2]; in vivo): five
Deaths due to AEs ([2]; n = 14): No patients died due to AEs
